{"source": "ChEMBL document CHEMBL2169878", "about": "(J Med Chem, 2012)", "key": {"Salmonella typhimurium [1]": {"test_system": "Salmonella typhimurium", "test": "Mutagenicity against Salmonella typhimurium TA98 assessed as revertants at 3 uM incubated for 90 mins followed by drug washout measured after 2 days relative to positive control", "type": "toxicity, organism-based", "details": "salmonella enterica subsp. enterica serovar typhimurium, 1.5 h"}, "Salmonella typhimurium [2]": {"test_system": "Salmonella typhimurium", "test": "Mutagenicity against Salmonella typhimurium TA98 assessed as revertants at 6 uM incubated for 90 mins followed by drug washout measured after 2 days relative to positive control", "type": "toxicity, organism-based", "details": "salmonella enterica subsp. enterica serovar typhimurium, 1.5 h"}, "Salmonella typhimurium [3]": {"test_system": "Salmonella typhimurium", "test": "Mutagenicity against Salmonella typhimurium TA98 assessed as revertants at 12 uM incubated for 90 mins followed by drug washout measured after 2 days relative to positive control", "type": "toxicity, organism-based", "details": "salmonella enterica subsp. enterica serovar typhimurium"}, "Salmonella typhimurium [4]": {"test_system": "Salmonella typhimurium", "test": "Mutagenicity against Salmonella typhimurium TA98 assessed as revertants at 24 uM incubated for 90 mins followed by drug washout measured after 2 days relative to positive control", "type": "toxicity, organism-based", "details": "salmonella enterica subsp. enterica serovar typhimurium, 1.5 h"}, "Salmonella typhimurium [5]": {"test_system": "Salmonella typhimurium", "test": "Mutagenicity against Salmonella typhimurium TA98 assessed as revertants at 48 uM incubated for 90 mins followed by drug washout measured after 2 days relative to positive control", "type": "toxicity, organism-based", "details": "salmonella enterica subsp. enterica serovar typhimurium, 1.5 h"}, "Salmonella typhimurium [6]": {"test_system": "Salmonella typhimurium", "test": "Mutagenicity against Salmonella typhimurium TA100 assessed as revertants at 1.5 uM incubated for 90 mins followed by drug washout measured after 2 days relative to positive control", "type": "toxicity, organism-based", "details": "salmonella enterica subsp. enterica serovar typhimurium, 1.5 h"}, "Salmonella typhimurium [7]": {"test_system": "Salmonella typhimurium", "test": "Mutagenicity against Salmonella typhimurium TA100 assessed as revertants at 3 uM incubated for 90 mins followed by drug washout measured after 2 days relative to positive control", "type": "toxicity, organism-based", "details": "salmonella enterica subsp. enterica serovar typhimurium, 1.5 h"}, "Salmonella typhimurium [8]": {"test_system": "Salmonella typhimurium", "test": "Mutagenicity against Salmonella typhimurium TA100 assessed as revertants at 6 uM incubated for 90 mins followed by drug washout measured after 2 days relative to positive control", "type": "toxicity, organism-based", "details": "salmonella enterica subsp. enterica serovar typhimurium, 1.5 h"}, "Salmonella typhimurium [9]": {"test_system": "Salmonella typhimurium", "test": "Mutagenicity against Salmonella typhimurium TA100 assessed as revertants at 12 uM incubated for 90 mins followed by drug washout measured after 2 days relative to positive control", "type": "toxicity, organism-based", "details": "salmonella enterica subsp. enterica serovar typhimurium"}, "Salmonella typhimurium [10]": {"test_system": "Salmonella typhimurium", "test": "Mutagenicity against Salmonella typhimurium TA100 assessed as revertants at 24 uM incubated for 90 mins followed by drug washout measured after 2 days relative to positive control", "type": "toxicity, organism-based", "details": "salmonella enterica subsp. enterica serovar typhimurium"}, "Salmonella typhimurium [11]": {"test_system": "Salmonella typhimurium", "test": "Mutagenicity against Salmonella typhimurium TA100 assessed as revertants at 48 uM incubated for 90 mins followed by drug washout measured after 2 days relative to positive control", "type": "toxicity, organism-based", "details": "salmonella enterica subsp. enterica serovar typhimurium"}, "Plasmodium falciparum [12]": {"test_system": "Plasmodium falciparum", "test": "Antiplasmodial activity against chloroquine-sensitive Plasmodium falciparum D10 infected in human RBC after 72 hrs by parasite lactate dehydrogenase assay", "type": "functional, organism-based", "details": "D10, 72 h"}, "Plasmodium falciparum [13]": {"test_system": "Plasmodium falciparum", "test": "Antiplasmodial activity against chloroquine-resistant Plasmodium falciparum W2 infected in human RBC after 72 hrs by parasite lactate dehydrogenase assay", "type": "functional, organism-based", "details": "W2, 72 h"}, "Plasmodium falciparum [14]": {"test_system": "Plasmodium falciparum", "test": "Antiplasmodial activity against chloroquine-sensitive Plasmodium falciparum NF54 infected in human erythrocytes assessed as inhibition of [3H]hypoxanthine incorporation incubated for 48 hrs prior to [3H]hypoxanthine addition measured after 48 hrs by liquid scintillation counting", "type": "functional, organism-based"}, "Plasmodium falciparum [15]": {"test_system": "Plasmodium falciparum", "test": "Antiplasmodial activity against chloroquine-resistant Plasmodium falciparum K1 infected in human erythrocytes assessed as inhibition of [3H]hypoxanthine incorporation incubated for 48 hrs prior to [3H]hypoxanthine addition measured after 48 hrs by liquid scintillation counting", "type": "functional, organism-based"}, "[16]": {"test": "Cytotoxicity against mouse NIH3T3 cells after 24 hrs by neutral red dye uptake assay", "type": "cell-based", "details": "read-out: TC50"}, "[17]": {"test": "Cytotoxicity against human HepG2 cells after 24 hrs by neutral red dye uptake assay", "type": "cell-based", "details": "read-out: TC50"}, "Salmonella typhimurium [18]": {"test_system": "Salmonella typhimurium", "test": "Mutagenicity against Salmonella typhimurium TA98 assessed as revertants at 1.5 uM incubated for 90 mins followed by drug washout measured after 2 days relative to positive control", "type": "toxicity, organism-based", "details": "salmonella enterica subsp. enterica serovar typhimurium, 1.5 h"}}, "data": [{"smiles": "COc1ccc2nccc(NC(c3cccc(Cl)c3)c3ccc(CN4CCCC4)c(Cl)c3)c2c1", "note": "(racemic)", "values": [{"measurement": "Activity", "setting": "Salmonella typhimurium [1]", "result": 0, "unit": "%"}, {"measurement": "Activity", "setting": "Salmonella typhimurium [2]", "result": 0, "unit": "%"}, {"measurement": "Activity", "setting": "Salmonella typhimurium [3]", "result": 3, "unit": "%"}, {"measurement": "Activity", "setting": "Salmonella typhimurium [4]", "result": 3, "unit": "%"}, {"measurement": "Activity", "setting": "Salmonella typhimurium [5]", "result": 3, "unit": "%"}, {"measurement": "Activity", "setting": "Salmonella typhimurium [6]", "result": 3, "unit": "%"}, {"measurement": "Activity", "setting": "Salmonella typhimurium [7]", "result": 4, "unit": "%"}, {"measurement": "Activity", "setting": "Salmonella typhimurium [8]", "result": 4, "unit": "%"}, {"measurement": "Activity", "setting": "Salmonella typhimurium [9]", "result": 4, "unit": "%"}, {"measurement": "Activity", "setting": "Salmonella typhimurium [10]", "result": 5, "unit": "%"}, {"measurement": "Activity", "setting": "Salmonella typhimurium [11]", "result": 10, "unit": "%"}, {"measurement": "IC50", "setting": "Plasmodium falciparum [12]", "result": 56, "unit": "nM"}, {"measurement": "IC50", "setting": "Plasmodium falciparum [13]", "result": 90, "unit": "nM"}, {"measurement": "IC50", "setting": "Plasmodium falciparum [14]", "result": 27, "unit": "nM"}, {"measurement": "IC50", "setting": "Plasmodium falciparum [15]", "result": 34, "unit": "nM"}, {"measurement": "CC50 at 24 h", "setting": "[16]", "result": 24000, "unit": "nM"}, {"measurement": "CC50 at 24 h", "setting": "[17]", "result": 12000, "unit": "nM"}, {"measurement": "Activity", "setting": "Salmonella typhimurium [18]", "result": 3, "unit": "%"}]}]}
